Read-outs that look alike come from different tables or passages of the source. Marks after values point to notes of the source that are not given here.
Columns and labels:
hLigI = target: T1, hLigI (Homo sapiens, UniProt P18858); test: High-throughput fluorescence-based DNA joining (ligation) assay; assay type: biochemical; conditions: for inhibition at 100 µM: read-out: % of inhibition @ 100 μM (Helen's data) hLigI
T1 construct: made in house
Experimental: Candidate ligase inhibitors identified by CADD were assayed for their ability to inhibit hLigI and T4 DNA ligase using a high-throughput, fluorescence energy transfer-based DNA joining assay (22). Duplicate reactions (30 μL) containing 10 pmol of nicked DNA substrate and either 0.25 pmol of hLigI or 10 units of T4 DNA ligase were incubated in the presence or absence of 100 μmol/L of the putative inhibitor. DNA binding by the candidate DNA ligase inhibitors was measured by displacement of ethidium bromide from DNA as previously described (30).
(§1) The method for screening compounds comprises testing the compound for the ability to inhibit human DNA ligases I, III and IV with a high throughput fluorescence-based ligation assay. In this assay, phosphodiester bond formation covalently links together two oligonucleotides, one of which is a fluorescent donor AF488 that is 11 nucleotides from the 3′ terminus and the other contains a fluorescence acceptor and quencher, BHQ1 that is 15 nucleotides from the 5′ terminus. When these oligonucleotides are present in separate duplexes and in the same nicked or intact duplex, there is no significant quenching of fluorescence because the donor and acceptor are too far apart. As single-strands neither the AF488 oligonucleotide nor the BHQ1 oligonucleotides have significant secondary structure. However, when these oligonucleotides are ligated together, the resultant single strand forms a stable hairpin structure, in which the AF488 and BHQ1 groups are very close together, resulting in efficient intra-molecular quenching of fluorescence. Thus, in the DNA joining assay, the DNA substrate is denatured after incubation with the DNA ligase and then renatured in the presence of a 20-fold excess of an oligonucleotide that is identical to the ligated strand containing the fluorescent door and acceptor except that it lacks these modifications. Using this assay, DNA joining, which results in reduced fluorescence at 518 nm, can be measured rapidly, quantitatively and with high-throughput using a fluorescence plate reader.
(§2) Applicants developed a novel high throughput fluorescence-based ligation assay by modifying the sequence of the oligos to optimize hairpin formation by the single strand ligated product of the high throughput fluorescence-based ligation assay of Chen et al (22). […] Compound stock solutions, which were 10 mM in 0.5% DMSO, were diluted in 0.5% DMSO. Human DNA ligases I and III were assayed with a nicked DNA substrate whereas as the substrate for human DNA ligase IV was two oligonucleotide duplexes with short complementary single strand ends.

human DNA ligase III = target: T2, human DNA ligase III (Homo sapiens, UniProt P49916); test: as above; assay type: biochemical; conditions: for inhibition at 100 µM: read-out: % of inhibition @ 100 μM (Helen's data) hLigIII
T2 sequence (P49916 1-862 isoform P49916-4): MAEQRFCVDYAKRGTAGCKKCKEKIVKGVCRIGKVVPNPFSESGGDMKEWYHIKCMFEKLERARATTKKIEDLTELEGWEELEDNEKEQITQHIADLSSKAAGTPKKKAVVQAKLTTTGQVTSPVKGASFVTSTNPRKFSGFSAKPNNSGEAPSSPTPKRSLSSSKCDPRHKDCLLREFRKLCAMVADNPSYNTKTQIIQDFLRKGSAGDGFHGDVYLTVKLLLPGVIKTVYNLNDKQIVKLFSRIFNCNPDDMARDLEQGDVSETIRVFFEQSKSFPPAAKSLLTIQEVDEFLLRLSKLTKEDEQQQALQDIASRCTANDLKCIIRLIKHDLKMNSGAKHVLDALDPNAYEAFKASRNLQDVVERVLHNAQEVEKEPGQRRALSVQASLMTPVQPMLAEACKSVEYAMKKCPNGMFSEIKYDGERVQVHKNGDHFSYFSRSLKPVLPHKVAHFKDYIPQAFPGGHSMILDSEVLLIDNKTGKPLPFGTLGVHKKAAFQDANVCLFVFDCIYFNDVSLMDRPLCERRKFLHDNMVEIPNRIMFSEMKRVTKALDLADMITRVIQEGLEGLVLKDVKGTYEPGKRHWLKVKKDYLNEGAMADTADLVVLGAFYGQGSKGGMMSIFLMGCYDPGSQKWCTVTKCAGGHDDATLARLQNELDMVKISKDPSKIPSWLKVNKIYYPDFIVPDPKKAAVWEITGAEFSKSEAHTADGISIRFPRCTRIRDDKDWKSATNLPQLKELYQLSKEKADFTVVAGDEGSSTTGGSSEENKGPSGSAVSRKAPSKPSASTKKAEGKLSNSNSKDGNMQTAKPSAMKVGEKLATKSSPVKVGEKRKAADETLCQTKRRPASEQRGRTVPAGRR
Source text: as §1, §2

human DNA ligase IV = human DNA ligase IV (Homo sapiens, UniProt P49917); test: as above; assay type: biochemical; conditions: 100 μM; for inhibition at 100 µM: read-out: % of inhibition @ 100 μM (Helen's data) hLigIV
Sequence of human DNA ligase IV (P49917 whole entry): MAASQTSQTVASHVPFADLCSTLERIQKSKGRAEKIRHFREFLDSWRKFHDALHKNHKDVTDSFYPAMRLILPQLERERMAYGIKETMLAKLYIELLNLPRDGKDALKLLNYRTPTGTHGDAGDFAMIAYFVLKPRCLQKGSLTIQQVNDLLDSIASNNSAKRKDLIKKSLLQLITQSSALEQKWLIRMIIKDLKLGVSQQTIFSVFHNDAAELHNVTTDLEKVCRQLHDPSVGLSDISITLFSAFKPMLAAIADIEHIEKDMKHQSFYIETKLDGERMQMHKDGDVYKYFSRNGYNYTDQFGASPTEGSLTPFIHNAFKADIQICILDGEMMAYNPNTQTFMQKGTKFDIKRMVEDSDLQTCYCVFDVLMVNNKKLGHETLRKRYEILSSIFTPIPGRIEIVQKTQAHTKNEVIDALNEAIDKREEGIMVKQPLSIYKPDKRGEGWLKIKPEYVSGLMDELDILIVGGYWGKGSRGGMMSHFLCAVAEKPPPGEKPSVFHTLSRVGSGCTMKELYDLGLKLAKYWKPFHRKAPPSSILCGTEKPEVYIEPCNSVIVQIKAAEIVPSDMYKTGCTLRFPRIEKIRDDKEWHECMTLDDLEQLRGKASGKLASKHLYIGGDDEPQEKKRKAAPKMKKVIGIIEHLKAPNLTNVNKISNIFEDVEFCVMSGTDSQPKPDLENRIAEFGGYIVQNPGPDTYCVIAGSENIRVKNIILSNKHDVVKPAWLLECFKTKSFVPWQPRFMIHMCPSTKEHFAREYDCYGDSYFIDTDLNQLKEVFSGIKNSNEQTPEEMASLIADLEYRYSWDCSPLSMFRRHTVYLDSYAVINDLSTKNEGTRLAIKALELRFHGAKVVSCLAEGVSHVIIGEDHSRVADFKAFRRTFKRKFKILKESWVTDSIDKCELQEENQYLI
Sequence of human DNA ligase IV (Q13426 whole entry partner): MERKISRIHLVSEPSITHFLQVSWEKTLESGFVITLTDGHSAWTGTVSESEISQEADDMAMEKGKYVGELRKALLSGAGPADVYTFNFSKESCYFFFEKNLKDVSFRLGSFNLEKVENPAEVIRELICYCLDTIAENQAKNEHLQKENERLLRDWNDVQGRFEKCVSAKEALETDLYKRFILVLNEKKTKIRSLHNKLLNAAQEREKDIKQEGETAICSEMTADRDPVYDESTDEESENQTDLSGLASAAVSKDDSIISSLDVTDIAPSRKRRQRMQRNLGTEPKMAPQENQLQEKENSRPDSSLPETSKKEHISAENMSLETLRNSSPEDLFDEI
Source text: as §1, §2

MCF10A cells [1] = test: MTT cell growth assay; assay type: cell-based, human; conditions: for IC50: Homo sapiens, MCF-10A
Experimental: (§3) The activity of hits from the initial screen was further validated using the MTT assay. Briefly, MCF10A and HCT116 cells were seeded in 96 well plates at 300 and 1200 cells per well, respectively, and allowed to adhere overnight. The following day, serial dilutions of compounds in media were added to the cells in a final volume 200 μl. After incubation for 5 days, MTT reagent (3-(4,5-dimthylthiazol-2-yl)-2,5-diphenyltatrazolium) was added and incubation was continued for 4 h. Formazan crystals generated by reduction of the MTT reagent in mitochondria were solubilized with isopropanol prior to the measurement of absorbance at 560 nm wavelength in a plate reader.
To extend the results of the […] cell culture screening assay, a subset of compounds were tested in larger cultures. Different concentrations of Compounds 67 and 151 were added to asynchronous subconfluent populations of HCT116 and MCF10A cells. Asynchronous subconfluent populations of HCT116 and MCF10A cells were pre-treated with different concentrations of compound 64 prior to the addition of 3 aminobenzamide (2 mM) MMS (100 μM) or cis-platinum (1 μM). After incubation for 5 days, cell growth was measured by the MTT assay (16).

MCF10A cells [2] = test: Cell proliferation screen (SYBR Green, Biomek FX); assay type: cell-based, human; conditions: 50 μM; percentage of values obtained with DMSO alone
Experimental: The ability of the compounds identified by CADD to inhibit proliferation of normal mammary epithelial MCF10A cells and colon carcinoma HCT116 cells was determined using a Biomek FX Laboratory Automation Workstation (Beckman Coulter, Inc., Fullerton, Calif.). On day 0, 20 μl of complete medium containing the appropriate number of cells (150-300) was plated per well of a 384-well tissue plate (Fisher Scientific, Hampton, N.H.) and incubated overnight at 37° C. with 5% CO2 and 90% humidity. Next day, day 1, compounds were prepared by serial dilution with complete medium to yield the concentration 100 μM, and 20 μl was added to each well containing 20 μl of medium and cells yielding the final concentration 50 μM in 40 μl volume. Plates were incubated for additional 3 days (days-2-5) until control cells (0.5% DMSO) reached ˜70-80% confluency. On day 6, 40 μl of lysis/detection solution containing 1.2% Igepal CA-630 (Sigma) and a 1:1000 dilution of SYBR Green I nucleic acid stain (Molecular Probes, Eugene, Oreg.) was added to each well. Following an overnight incubation at 37° C., total fluorescence was measured using a Fluorostar Galaxy plate reader with a 485 nm excitation filter and 520 nm emission filter set (BMG Labtech, Inc., Durham, N.C.). Data was exported to a custom program that determined growth inhibition by dividing each individual fluorescence value by the average of fluorescence values obtained with cells treated with DMSO alone.
The 192 human DNA ligase inhibitors were screened in parallel for effects on proliferation and the ability to potentiate the effects of several DNA damaging agents using two cell human lines, a colon cancer line HCT116 and a normal breast epithelial cell line MCF10A using a Biomek FX Laboratory Automation Workstation as described (23). The DNA damaging agents used, methyl methanesulfonate (MMS), camptothecin, cis-platinum, 3 aminobenzamide and ionizing radiation, are representatives of classes of agents used to treat cancer. Briefly, HCT116 and MCF10A cells were plated in 96 well plates such that the cultures were about 80% confluent after 5 days incubation. Compounds were added to the cultures at either 15 μM or 50 μM 1 day after plating. After incubation for 3 days, cell lysed in a solution containing 1.2% Igepal CA-630 and SYBR green that stains DNA (1:1000, Molecular Probes, Eugene, Oreg.). Subsequently, fluorescence was measured per well. The studies with DNA damaging agents were performed as follows. […] For ionizing radiation, cells were pre-incubated with the compounds at 50 μM for 1 hour prior to exposure to 2 gray of ionizing radiation. Cultures were incubated for 3 days and then treated as above.

MCF10A cells [3] = test: Screen for potentiation of DNA damaging agents (MMS, camptothecin, cis-platinum, 3 aminobenzamide, ionizing radiation); assay type: cell-based, human; conditions: compound alone vs combination with MMS (100 μM); 1 = no sensitization
Source text: The 192 human DNA ligase inhibitors were screened in parallel for effects on proliferation and the ability to potentiate the effects of several DNA damaging agents using two cell human lines, a colon cancer line HCT116 and a normal breast epithelial cell line MCF10A using a Biomek FX Laboratory Automation Workstation as described (23). The DNA damaging agents used, methyl methanesulfonate (MMS), camptothecin, cis-platinum, 3 aminobenzamide and ionizing radiation, are representatives of classes of agents used to treat cancer. Briefly, HCT116 and MCF10A cells were plated in 96 well plates such that the cultures were about 80% confluent after 5 days incubation. Compounds were added to the cultures at either 15 μM or 50 μM 1 day after plating. After incubation for 3 days, cell lysed in a solution containing 1.2% Igepal CA-630 and SYBR green that stains DNA (1:1000, Molecular Probes, Eugene, Oreg.). Subsequently, fluorescence was measured per well. The studies with DNA damaging agents were performed as follows. […] Cultures were incubated for 3 days and then treated as above.

HCT116 cells = test: MTT cell growth assay; assay type: cell-based, human; conditions: Homo sapiens, HCT-116
Experimental: as §3
After incubation for 5 days, cell growth was measured by the MTT assay (16).

[4] = sections 'high concentrations (~50 μM)' and 'active in vitro that decreased cell growth', same figures given in μM elsewhere in Table 6, read-out: IC50 MCF10A (head without unit)

T1 sequence (P18858 whole entry): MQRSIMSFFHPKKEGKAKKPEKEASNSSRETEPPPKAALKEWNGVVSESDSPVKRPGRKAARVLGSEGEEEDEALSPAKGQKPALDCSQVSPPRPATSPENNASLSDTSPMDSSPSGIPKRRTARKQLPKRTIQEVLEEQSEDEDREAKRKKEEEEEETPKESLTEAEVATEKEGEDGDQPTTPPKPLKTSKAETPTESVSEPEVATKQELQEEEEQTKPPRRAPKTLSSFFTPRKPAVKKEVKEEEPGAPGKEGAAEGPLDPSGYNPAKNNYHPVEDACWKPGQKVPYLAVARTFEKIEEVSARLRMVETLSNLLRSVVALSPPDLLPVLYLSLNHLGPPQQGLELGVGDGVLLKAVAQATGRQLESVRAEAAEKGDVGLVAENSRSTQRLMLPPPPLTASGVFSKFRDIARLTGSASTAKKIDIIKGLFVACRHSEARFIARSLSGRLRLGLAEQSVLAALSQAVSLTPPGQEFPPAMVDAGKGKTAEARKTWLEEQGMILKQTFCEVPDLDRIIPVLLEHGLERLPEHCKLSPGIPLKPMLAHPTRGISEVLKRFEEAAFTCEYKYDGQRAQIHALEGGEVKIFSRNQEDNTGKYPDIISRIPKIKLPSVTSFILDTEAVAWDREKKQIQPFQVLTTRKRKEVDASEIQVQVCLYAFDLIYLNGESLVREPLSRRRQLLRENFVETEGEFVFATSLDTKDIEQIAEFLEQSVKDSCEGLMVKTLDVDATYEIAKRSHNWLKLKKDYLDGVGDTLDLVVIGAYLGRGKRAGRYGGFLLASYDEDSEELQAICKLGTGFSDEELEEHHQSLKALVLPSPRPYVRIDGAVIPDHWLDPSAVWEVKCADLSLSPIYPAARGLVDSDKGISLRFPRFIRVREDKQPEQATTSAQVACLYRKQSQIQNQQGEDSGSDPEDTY

O=c1[nH]cc(/C=N/Nc2ncnc3[nH]cnc23)c(=O)[nH]1 [Compound 208]
inhibition at 100 µM (hLigI; 100 μM): 21% | inhibition at 100 µM (human DNA ligase III): 24% | inhibition at 100 µM (human DNA ligase IV): < 20% | IC50 (MCF10A cells [1]; cell growth, compound alone, read-out: IC50 (μM) MCF10A): 40 µM | IC50 (MCF10A cells [1]; [4]): 40 µM

O=C1N/C(=N\c2ccccc2)S/C1=C/c1ccc(-c2cccc(C(=O)O)c2)o1 [Compound 202]
inhibition of hLigI (DNA ligase I), in words (hLigI; in vitro screen, 100 μmol/L, the 15 hLigI inhibitors inhibited by >50%): inhibited hLigI | Growth_Inh % (50 μM) MCF10A (MCF10A cells [2]): 50%

C=CCN1C(=O)/C(=C\c2ccccc2C(=O)O)SC1=S [Compound 159]
inhibition at 100 µM (hLigI; 100 μM): < 20% | inhibition at 100 µM (human DNA ligase III): < 20% | inhibition at 100 µM (human DNA ligase IV): < 20% | MMS: Ratios of IC50 MCF10A (MCF10A cells [3]): Ni | IC50 (HCT116 cells; cell growth, compound alone, read-out: IC50 (μM) HCT116): 50 µM | IC50 (HCT116 cells; sections 'high concentrations (~50 μM)' and 'active in vitro that decreased cell growth', same figures given in μM elsewhere in Table 6, read-out: IC50 HCT116 (head without unit)): ≥ 50 µM | IC50 (MCF10A cells [1]; [4]): > 50 µM

CC(C(=O)Nc1cccc(C(=O)O)c1)N(C)S(=O)(=O)c1ccccc1 (stereo not drawn) [Compound 199]
% of inhibition @ 100 μM (Helen's data) hLigI (hLigI; 100 μM): NI (NI- no inhibition) | % of inhibition @ 100 μM (Helen's data) hLigIII (human DNA ligase III; 100 μM): NI (NI- no inhibition) | % of inhibition @ 100 μM (Helen's data) hLigIV (human DNA ligase IV): NI (NI- no inhibition) | inhibition of cell proliferation of MCF10A at 50 μM (MTT) (MCF10A cells [1]; 50 μM, numbers printed under MCF10A in r92-r106: 79, 124, 130, 193, 197, 198, 199 (30%), 214, 221): 199^t (30%)

Reference: US9757375B2, “Compounds that inhibit human DNA ligases and methods of treating cancer” (University of Maryland, Baltimore, priority 2007, dated 2017)
